# Patent US7563789B2, “1-Adamantyl chalcones for the treatment of proliferative disorders” (priority 2002, dated 2009)
# Read-outs that look alike come from different tables or passages of the source.
# Experiments:
# [1] = test system: normal breast epithelial cell line MCF-10; assay: Toxicity for normal breast epithelial cells; format: cell-based; conditions: MCF-10 cells; highest concentration tested (1 mM); average values
# Experimental: 3. […] LC50 values were estimated from a dose response graph.
# The relative toxicity of the synthesized compounds (47a-e) against normal breast cells was studied by exposing normal breast epithelial cell line MCF-10 to our synthesized compounds in concentration ranges from 1 nM to 1 mM. These cells were likewise exposed to equivalent concentrations of Tamoxifen, Genestein, and Doxyrubicin. […] At concentrations lower than 10^−7 M, these compounds appeared to enhance the viability of cells.
# [2] = test system: MDA-MB435 (ER-negative) human breast cancer cell line; assay: Dose response / cell viability (LC50) in MDA-MB435 breast cancer cells
# Experimental: 1. […] Biological activity was determined by relative LC50 values of these agents.
# (§1) 2. The compounds in series I, II, III, and IV were examined against two different types of breast cancer cell lines which included estrogen receptor positive (MCF-7) and estrogen receptor negative (MDA-MB435) cell lines.
# (§2) 3. Toxicity of the compounds for normal breast epithelial cells were examined by comparing LC50 values in normal breast epithelial cell line (MCF-10) against LC50 values in cancer cell lines. LC50 is the concentration that is lethal to 50 percent of the cells. LC50 values were estimated from a dose response graph.
# (§3) Two human breast cancers cell lines (MCF-7 and MDA-MB435) and a normal breast epithelial cell line (MCF-10) were obtained from ATCC (American Type Culture Collection) to test against the series of compounds and the data were examined for the compounds' relative antiproliferation profiles. All of these cell lines were derived from epithelial tissue. These cell lines were selected because they allowed our laboratory to investigate the effects of the compounds in: 1) breast neoplasms whose growth is stimulated by the presence of estrogen, MCF-7 (ER-positive); 2) Breast neoplasms whose growth is not stimulated by estrogen MDA-MB435 (ER-negative); and 3) A non-cancer cell line (MCF-10) to compare relative toxicities of the compounds.
# [3] = test system: Normal human mammary epithelial (HME) cells stimulated by EGF; conditions: read-out: concentration at which cell growth is inhibited by 50% (IC50); cited from earlier work
# [4] = test system: EGF stimulated growth of MCF-7 cells; format: cell-based, human
# Experimental: (§4) The possible mechanism of action of these compounds was explored by examining the ability of these agents to reverse growth factor stimulated proliferation. The ability of these compounds to attenuate EGF and TGF stimulated growth was tested.
# (§5) Both MCF-7 and MDA-MB435 cells contain EGF-R and TGF-R. In an effort to examine the role of EGF-R and TGF-R in the proliferation of MCF-7 and MDA-MB435, these cells were stimulated to growth stimulatory at 50 percent (GS50) values.
# (§6) In all cases 10 ml of growth factor was administered at a concentration of 1 ng/ml.
# [5] = test system: TGF-α stimulated growth of MCF-7 cells; assay: Reversal of TGF-α stimulated growth of MCF-7 cells; format: cell-based
# Experimental: as §4, §5, §6
# [6] = test system: EGF stimulated growth of MDA-MB435 cells; assay: Reversal of EGF stimulated growth of MDA-MB435 cells; format: cell-based; conditions: EGF (1 ng/ml) serum and non-serum stimulated growth of MDA-MB435 cells; 10^−9 to 10^−3 M
# Experimental: as §4, §5, §6
# [7] = test system: TGF stimulated growth of MDA-MB 435 cells
# Experimental: 4. The possible mechanism of action of these compounds was explored by examining the ability of these agents to reverse growth factor stimulated proliferation. The ability of these compounds to attenuate EGF and TGF stimulated growth was tested.
# as §5, §6
# [8] = test system: MCF-7 (ER-positive) human breast cancer cell line; assay: cells
# Experimental: 1. A dose response curve for compounds, series I, II, III, IV, over a concentration range of 1 mM to 1 nM was prepared in order to detect the doses where possible biological activity might exist. Biological activity was determined by relative LC50 values of these agents.
# as §1, §2, §3
# [9] = Homo sapiens, MCF7, read-out: LC50
compound,measurement,setting,value
Cc1cccc(/C=C/C(=O)C23CC4CC(CC(C4)C2)C3)n1 [Compound 47d],% cell viability,[1],94%
O=C(/C=C/c1ccncc1)C12CC3CC(CC(C3)C1)C2 [Compound 47c],% cell viability,[1],102%
O=C(/C=C/c1cccnc1)C12CC3CC(CC(C3)C1)C2 [Compound 47b],CC50,[2],0.005 mM
same,% cell viability,[1],124%
"O=c1c(-c2ccc(O)cc2)coc2cc(O)cc(O)c12 [Genestein, Genistein]",CC50,"[2]; Homo sapiens, MDA-MB-435, read-out: LC50",5 mM
same,LC50 (in words),"[2]; MDA-MB435 cells, in the concentration range measured (1 mM to 1 nM)",no LC50 was obtained
same,IC50,[3],1000 nM
O=C(/C=C/c1ccccn1)C12CC3CC(CC(C3)C1)C2 [Compound 47a],% cell viability,[1],103%
same,IC50,"[4]; EGF-non serum stimulated growth of MCF-7 cells, read-out: IC50, reversal of stimulated growth back to control values",50 µM
same,concentration reversing stimulated growth back to control values,[4]; EGF-serum stimulated growth of MCF-7 cells,10 µM
same,CC50,"[5]; MCF-7, TGF 1 ng/ml, non-serum stimulated, reversal value, read-out: LC50 Data for Administered Drug, Non-Serum Stimulated",50 µM
same,reversal of stimulated growth (in words),"[5]; TGF-α serum and non-serum stimulated growth of MCF-7 cells, 10^−9 to 10^−3 M",neither TGF-α serum stimulated nor non-serum stimulated growth of MCF-7 cells significantly reversed
same,reversal of stimulated growth (in words),[6],Neither EGF (1 ng/ml) serum nor non-serum stimulated growth of MDA-MB435 cells was reversed
same,concentration reversing stimulated growth back to control values,[7]; TGF (1 ng/ml) non-serum stimulated growth of MDA-MB 435 cells,10 µM
same,concentration reversing stimulated growth back to control values,[7]; TGF (1 ng/ml) serum stimulated growth of MDA-MB 435 cells,50 µM
O=C(/C=C/c1ccnc2ccccc12)C12CC3CC(CC(C3)C1)C2 [Compound 47e],CC50,[8],50 µM
same,LC50 increase over tamoxifen,"[8]; MCF-7 cells, versus tamoxifen",10 fold
same,% cell viability,[1],98%
COc1cccc2c1C(=O)c1c(O)c3c(c(O)c1C2=O)C[C@@](O)(C(=O)CO)C[C@@H]3O[C@H]1C[C@H](N)[C@H](O)[C@H](C)O1 [Doxyrubicin],CC50,[8]; [9],500 µM
CC/C(=C(\c1ccccc1)c1ccc(OCCN(C)C)cc1)c1ccccc1 [Tamoxifen],CC50,[8]; [9],500 µM
same,effect on cell viability (in words),[2]; MDA-MB435 cells,ineffective at lower concentrations
CC(C)c1ccc(/C=C/C(=O)C23CC4CC(CC(C4)C2)C3)cc1 [Compound 43f],decrease of cell viability,[8],20%
same,effect on cell viability (in words),[2]; MDA-MB435 cells,altered cell viability only at much higher concentrations than required for MCF-7 cells
